Reference: patent US9359378B2, “Substituted oxazolo[3,4-a]pyrazines as pharmaceutcals” (BIOLAB SANUS FARMACÊUTICA LTDA., priority 2014, dated 2016)

Key:
PDE7A = molecular target: T1, PDE7A (Homo sapiens, UniProt Q13946); assay: PDE7A enzyme inhibition (HTRF, cAMP substrate); assay type: biochemical; conditions: human recombinant enzyme (Sf9); FIGS. 14 and 15; test concentration not given
T1 construct: host or cells: Sf9
Source text: (§1) The effects of the BL-230 and BL-236 compounds on the activity of the human enzymes PDE2A1, PDE3A, PDE4A1A, PDE4B1, PDE7A, PDE8A1, and PDE10A2 and PDE11A4 were quantified by measuring the production of adenosine 5′-monophosphate (5′AMP) from cyclic adenosine monophosphate (cAMP), with human recombinant enzyme expressed in Sf9 cells and the detection method was by using HTRF®.
(§2) The test compound, the reference compound or water (control) were mixed with the enzyme (the enzymes and their amounts used are described in Table 1) in a buffer containing 44.4 mM Tris-HCl, 5.28 mM MgCl2, 2.64 mM DTT and 0.044% Tween® 20 (pH 7.8). Then, the reaction was initiated by the addition of 40 nM of cAMP substrate and the mixture was incubated for 30 minutes at room temperature. For basal control measurements, the enzyme was omitted from the reaction mixture. The fluorescence acceptor (Dye2 labeled cAMP) and fluorescence donor (anti-cAMP antibody labeled with europium cryptate) were added in the presence of 1 mM IBMX. After 60 minutes, the fluorescence corresponding to the amount of transfer residual cAMP was measured at λex=337 nm, λem=620 nm and λem=665 nm using a microplate reader (RubyStar, BMG). The enzyme activity was determined by the signal division measured at 665 nm, by the measured signal at 620 nm (right). The results were expressed as a inhibition percentage of the control enzyme activity. […]

PDE4A1A = molecular target: T2, PDE4A1A (Homo sapiens, UniProt P27815); assay: PDE4A1A enzyme inhibition (HTRF, cAMP substrate); assay type: biochemical; conditions: human recombinant enzyme (Sf9); FIGS. 14 and 15; test concentration not given
T2 construct: host or cells: Sf9
Source text: as §1, §2

PDE5 = molecular target: T3, PDE5 (Homo sapiens, UniProt O76074); assay: PDE5 enzyme inhibition (SPA, enzyme isolated from human platelets); assay type: biochemical; conditions: FIGS. 14 and 15, test concentration not given
T3 construct: using an enzyme isolated from Cerep human platelets; tissue Cerep; host or cells: human platelets
Protocol: The effects of compounds BL-230 and BL-236 on human PDE5 enzyme activity was quantified by measuring the production of 5′GMP from cGMP using an enzyme isolated from Cerep human platelets and the utilized detection method was scintillation proximity assay (SPA).
The test compound, the reference compound or water (control) were added to a buffer containing 40 mM Tris-HCl (pH 7.8), 3 mM MgCl2, 1.4 mM DTT, 0.21% BSA, 200 mM ammonium chloride (NH4Cl), 1 μM cGMP and 0.1 μCi of [^3H]cGMP. Then the reaction was started by adding the enzyme (final amount depending on the efficiency of the isolation) and the mixture was incubated for 60 minutes at 22° C. For basal control measurements, the enzyme was omitted from the reaction mixture. Following this, the SPA incubation beads were added. After 20 min at 22° C. under agitation, the amount of [^3H] 5′GMP was quantified with a scintillation counter (Topcount, Packard). The results were expressed as an inhibition percentage of the control enzyme activity. The standard inhibitory reference compound dipyridamole was used, which was tested in each experiment at several concentrations to obtain an inhibition curve from which its IC50 value was calculated. […]

PDE4B1 = molecular target: T4, PDE4B1 (Homo sapiens, UniProt Q07343); assay: PDE4B1 enzyme inhibition (HTRF, cAMP substrate); assay type: biochemical; conditions: human recombinant enzyme (Sf9); FIGS. 14 and 15; test concentration not given
T4 construct: host or cells: Sf9
Source text: as §1, §2

PDE2A1 = molecular target: T5, PDE2A1 (Homo sapiens, UniProt O00408); assay: PDE2A1 enzyme inhibition (HTRF, cAMP substrate); assay type: biochemical; conditions: human recombinant enzyme (Sf9); FIGS. 14 and 15; test concentration not given
T5 construct: host or cells: Sf9
Source text: as §1, §2

T2 sequence (P27815 1-647 isoform P27815-4): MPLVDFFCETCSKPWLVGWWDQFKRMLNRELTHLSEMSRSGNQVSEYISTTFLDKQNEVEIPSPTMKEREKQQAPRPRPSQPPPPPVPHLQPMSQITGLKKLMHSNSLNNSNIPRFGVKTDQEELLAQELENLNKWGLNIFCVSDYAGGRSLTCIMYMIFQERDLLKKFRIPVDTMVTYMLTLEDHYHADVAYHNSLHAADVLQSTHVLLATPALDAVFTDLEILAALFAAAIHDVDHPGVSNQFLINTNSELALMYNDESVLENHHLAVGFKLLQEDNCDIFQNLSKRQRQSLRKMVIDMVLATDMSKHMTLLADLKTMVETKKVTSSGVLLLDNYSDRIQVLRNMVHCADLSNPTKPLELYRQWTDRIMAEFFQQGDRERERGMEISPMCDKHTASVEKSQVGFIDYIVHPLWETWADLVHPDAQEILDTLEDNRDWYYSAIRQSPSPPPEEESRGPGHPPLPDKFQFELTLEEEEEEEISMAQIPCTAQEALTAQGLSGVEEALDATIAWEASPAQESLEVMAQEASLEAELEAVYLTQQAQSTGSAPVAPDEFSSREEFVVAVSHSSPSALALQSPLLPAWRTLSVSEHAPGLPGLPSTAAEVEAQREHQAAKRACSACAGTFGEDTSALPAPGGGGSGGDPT
T1 sequence (Q13946 whole entry): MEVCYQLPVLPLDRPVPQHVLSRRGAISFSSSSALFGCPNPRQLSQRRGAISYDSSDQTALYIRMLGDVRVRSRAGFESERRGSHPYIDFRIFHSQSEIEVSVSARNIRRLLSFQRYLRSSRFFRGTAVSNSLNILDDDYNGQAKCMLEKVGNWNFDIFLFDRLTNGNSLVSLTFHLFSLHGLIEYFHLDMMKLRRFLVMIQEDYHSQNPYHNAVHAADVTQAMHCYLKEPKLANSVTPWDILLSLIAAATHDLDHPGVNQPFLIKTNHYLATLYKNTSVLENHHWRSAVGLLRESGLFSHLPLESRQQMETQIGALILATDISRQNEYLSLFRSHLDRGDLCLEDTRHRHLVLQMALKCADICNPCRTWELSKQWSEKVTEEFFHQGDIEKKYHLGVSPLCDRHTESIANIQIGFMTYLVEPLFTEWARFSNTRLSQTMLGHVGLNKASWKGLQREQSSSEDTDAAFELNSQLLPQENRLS
T4 sequence (Q07343 whole entry): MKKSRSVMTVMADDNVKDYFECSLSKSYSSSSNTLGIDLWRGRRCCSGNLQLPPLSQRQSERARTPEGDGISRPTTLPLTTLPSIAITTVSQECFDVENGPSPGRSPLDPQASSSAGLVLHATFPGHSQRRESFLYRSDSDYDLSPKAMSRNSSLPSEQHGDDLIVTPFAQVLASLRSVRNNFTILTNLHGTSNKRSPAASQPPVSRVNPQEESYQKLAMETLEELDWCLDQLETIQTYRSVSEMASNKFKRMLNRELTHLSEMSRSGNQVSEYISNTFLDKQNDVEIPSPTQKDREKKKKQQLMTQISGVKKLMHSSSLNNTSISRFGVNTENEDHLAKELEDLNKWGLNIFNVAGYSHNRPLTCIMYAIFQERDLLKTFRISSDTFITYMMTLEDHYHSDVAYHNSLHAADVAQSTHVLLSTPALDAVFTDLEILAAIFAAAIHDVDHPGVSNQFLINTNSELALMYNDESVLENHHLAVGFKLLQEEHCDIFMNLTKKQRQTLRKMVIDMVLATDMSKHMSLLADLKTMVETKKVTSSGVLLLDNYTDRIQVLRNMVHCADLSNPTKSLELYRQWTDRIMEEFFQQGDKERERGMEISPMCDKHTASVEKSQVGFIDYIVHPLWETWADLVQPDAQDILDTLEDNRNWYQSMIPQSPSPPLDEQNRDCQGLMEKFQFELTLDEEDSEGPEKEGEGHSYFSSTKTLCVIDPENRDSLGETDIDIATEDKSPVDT
T5 sequence (O00408 1-920 isoform O00408-2): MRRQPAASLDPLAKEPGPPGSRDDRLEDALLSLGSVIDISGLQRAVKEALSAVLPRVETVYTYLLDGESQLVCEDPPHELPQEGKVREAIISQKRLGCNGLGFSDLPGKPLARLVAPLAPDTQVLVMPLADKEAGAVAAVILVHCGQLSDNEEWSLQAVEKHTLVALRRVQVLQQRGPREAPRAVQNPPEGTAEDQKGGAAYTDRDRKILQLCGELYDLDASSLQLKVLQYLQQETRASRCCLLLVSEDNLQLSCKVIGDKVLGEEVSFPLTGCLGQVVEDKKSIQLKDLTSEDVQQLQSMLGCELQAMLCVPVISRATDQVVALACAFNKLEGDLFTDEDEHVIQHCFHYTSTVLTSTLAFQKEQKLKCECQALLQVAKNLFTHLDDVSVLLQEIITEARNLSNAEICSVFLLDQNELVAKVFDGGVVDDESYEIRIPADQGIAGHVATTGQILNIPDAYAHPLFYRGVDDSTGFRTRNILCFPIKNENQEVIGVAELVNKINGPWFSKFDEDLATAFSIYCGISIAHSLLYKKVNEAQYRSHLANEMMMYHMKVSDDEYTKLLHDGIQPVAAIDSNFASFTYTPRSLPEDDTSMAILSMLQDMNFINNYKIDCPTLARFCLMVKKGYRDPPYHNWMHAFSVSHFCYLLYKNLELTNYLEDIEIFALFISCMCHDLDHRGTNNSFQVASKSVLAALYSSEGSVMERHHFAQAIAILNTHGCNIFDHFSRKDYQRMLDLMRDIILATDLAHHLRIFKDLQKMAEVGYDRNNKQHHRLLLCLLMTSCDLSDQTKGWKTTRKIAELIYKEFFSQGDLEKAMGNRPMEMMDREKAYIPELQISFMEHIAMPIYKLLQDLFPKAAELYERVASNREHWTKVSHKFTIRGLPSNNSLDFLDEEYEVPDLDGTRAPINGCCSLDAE

| inhibition of PDE7A enzyme activity (PDE7A) | inhibition of PDE4A1A enzyme activity (PDE4A1A) | melting point [°C] | inhibition of PDE5 enzyme activity (PDE5) [%] | inhibition of PDE4B1 enzyme activity (PDE4B1) | inhibition of PDE2A1 enzyme activity (PDE2A1) | SMILES |
| --- | --- | --- | --- | --- | --- | --- |
| did not inhibit | did not inhibit | 254 to 258 | 90 | did not inhibit | did not inhibit | O=C1C2=C(c3c[nH]c4ccccc34)OC(c3ccc4c(c3)OCO4)N2C(=O)CN1CCO (stereo not drawn) [BL-230, 3-(benzo[d][1,3]dioxol-5yl)-7-(2-hydroxyethyl)-1-(1H-indol-3-yl)-6,7-dihydro-3H-oxazolo[3,4-a]pyrazine-5,8-dione] |
| did not inhibit | did not inhibit | 235 to 239 | 86 | did not inhibit | did not inhibit | C[C@@H](CO)N1CC(=O)N2C(=C(c3c[nH]c4ccccc34)OC2c2ccc3c(c2)OCO3)C1=O (stereo partly drawn) [BL-236, 3-(benzo[d][1,3]dioxol-5yl)-7-((S)1-hydroxypropan-2yl)-1-(1H-indol-3-yl)-6,7-dihydro-3H-oxazolo[3,4-a]pyrazine-5,8-dione] |
